Experimental data taken from the supplement of paper PMC11451515.

System: NOMO1
Assay: cell viability relative to DMSO control; higher = less cytotoxic
Details: 48 h
In short: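 In 1536-well plates, 5 μl of leukemia cells were seeded per well: 500 cells/well for NOMO1 or SEM and 1000 cells/well for P12-Ichikawa. Each line had first been adapted for at least four passages in each medium. Library compounds in DMSO were pin-dosed at 11 threefold concentrations between 47 μM and 0.79 nM, and CellTiter-Glo One luminescence was read after 48 h at 37°C. Viability is a per-plate percentage relative to DMSO wells, with cell-free wells as background.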

[1] = HPLM + 10% dialyzed FBS, 0.000781 µM
[2] = HPLM + 10% dialyzed FBS, 0.00234 µM
[3] = HPLM + 10% dialyzed FBS, 0.00702 µM
[4] = HPLM + 10% dialyzed FBS, 0.0211 µM
[5] = HPLM + 10% dialyzed FBS, 0.0632 µM
[6] = HPLM + 10% dialyzed FBS, 0.19 µM
[7] = HPLM + 10% dialyzed FBS, 0.569 µM
[8] = HPLM + 10% dialyzed FBS, 1.71 µM
[9] = HPLM + 10% dialyzed FBS, 5.12 µM
[10] = HPLM + 10% dialyzed FBS, 15.4 µM
[11] = HPLM + 10% dialyzed FBS, 46.1 µM
[12] = RPMI 5 mM glucose + 10% FBS, 0.000781 µM
[13] = RPMI 5 mM glucose + 10% FBS, 0.00234 µM
[14] = RPMI 5 mM glucose + 10% FBS, 0.00702 µM
[15] = RPMI 5 mM glucose + 10% FBS, 0.0211 µM
[16] = RPMI 5 mM glucose + 10% FBS, 0.0632 µM
[17] = RPMI 5 mM glucose + 10% FBS, 0.19 µM
[18] = RPMI 5 mM glucose + 10% FBS, 0.569 µM
[19] = RPMI 5 mM glucose + 10% FBS, 1.71 µM
[20] = RPMI 5 mM glucose + 10% FBS, 5.12 µM
[21] = RPMI 5 mM glucose + 10% FBS, 15.4 µM
[22] = RPMI 5 mM glucose + 10% FBS, 46.1 µM
[23] = RPMI 5 mM glucose + 10% dialyzed FBS, 0.000781 µM
[24] = RPMI 5 mM glucose + 10% dialyzed FBS, 0.00234 µM
[25] = RPMI 5 mM glucose + 10% dialyzed FBS, 0.00702 µM
[26] = RPMI 5 mM glucose + 10% dialyzed FBS, 0.0211 µM
[27] = RPMI 5 mM glucose + 10% dialyzed FBS, 0.0632 µM
[28] = RPMI 5 mM glucose + 10% dialyzed FBS, 0.19 µM
[29] = RPMI 5 mM glucose + 10% dialyzed FBS, 0.569 µM
[30] = RPMI 5 mM glucose + 10% dialyzed FBS, 1.71 µM
[31] = RPMI 5 mM glucose + 10% dialyzed FBS, 5.12 µM
[32] = RPMI 5 mM glucose + 10% dialyzed FBS, 15.4 µM
[33] = RPMI 5 mM glucose + 10% dialyzed FBS, 46.1 µM

SMILES	cell viability [1] [%]	cell viability [2] [%]	cell viability [3] [%]	cell viability [4] [%]	cell viability [5] [%]	cell viability [6] [%]	cell viability [7] [%]	cell viability [8] [%]	cell viability [9] [%]	cell viability [10] [%]	cell viability [11] [%]	cell viability [12] [%]	cell viability [13] [%]	cell viability [14] [%]	cell viability [15] [%]	cell viability [16] [%]	cell viability [17] [%]	cell viability [18] [%]	cell viability [19] [%]	cell viability [20] [%]	cell viability [21] [%]	cell viability [22] [%]	cell viability [23] [%]	cell viability [24] [%]	cell viability [25] [%]	cell viability [26] [%]	cell viability [27] [%]	cell viability [28] [%]	cell viability [29] [%]	cell viability [30] [%]	cell viability [31] [%]	cell viability [32] [%]	cell viability [33] [%]
O=C(O)c1ccc(-c2c[nH]c3ncc(-c4ccccc4)cc23)cc1C1CCCC1	114	120	121	130	134	134	131	138	126	134	110	118	108	131	123	127	123	130	132	113	115	117	108	127	112	133	137	126	125	132	120	105	119
CN(C)/[N+]([O-])=N/Oc1cc(ON[N+](=O)N2CCN(C(=O)c3cc(Cc4n[nH]c(=O)c5ccccc45)ccc3F)CC2)c([N+](=O)[O-])cc1[N+](=O)[O-]	101	94.9	100	100	115	119	109	104	102	126	117	99.1	97.4	103	114	99.4	102	113	122	119	101	106	93.9	112	101	107	118	114	103	109	123	115	120
COc1ccc(CC2c3cc(OC)c(OC)cc3CC[N+]2(C)CCC(=O)OCCCCCOC(=O)CC[N+]2(C)CCc3cc(OC)c(OC)cc3C2Cc2ccc(OC)c(OC)c2)cc1OC (configuration not stated)	91	98.8	116	98.5	109	98.8	93.6	92.2	77.1	29.9	7.29	77.8	77.8	85.7	89.3	98.6	93	85.7	97.5	87.5	65	8.84	75.5	87	79.2	93.3	85.8	92	84.6	90	70	67.5	8.69
FC(F)(F)C1=CC=C2C(SCCCCCO\C3=C\O\C(CN4CCOCC4)=C/C3=O)=CC=NC2=C1	96	122	144	119	122	139	137	128	131	124	107	116	124	107	103	118	135	118	121	122	112	109	99.3	118	105	114	131	112	125	129	114	109	92.4
CCN1\C=C(C(O)=O)/C(=O)C2=C1C=C(N3CCN(C)CC3)C(=C2)F												97.7	104	106	108	106	113	107	104	82	71	51.9	123	112	112	154	157	77	71.9	47.7	57.6	58.5	32.6
COc1cc(Nc2ncc(F)c(Nc3ccc4c(n3)N(COP(=O)(O)O)C(=O)C(C)(C)O4)n2)cc(OC)c1OC	93.5	94.8	101	97.2	122	106	87.6	99.5	116	93.5	91.1	80.8	90.2	94.1	100	103	98.6	95.6	94.4	94.1	94.2	92.6	101	89	90.8	80.2	89.6	102	88.5	86.6	94.6	89.4	99.1
COC(=O)Nc1ccc(-c2nc(N3CCOCC3)c3cnn(C4CCN(Cc5cccnc5)CC4)c3n2)cc1	117	117	132	108	88.6	76.4	70.3	70.6	26.3	19.4	9.7	106	117	119	105	110	92.4	88.7	82.6	45.4	32.4	17.6											
NCCCC(O)(P(=O)(O)O)P(=O)(O)O.O.O.O.[Na+]												102				117	117	102	106	102				116	107	123	115	110	111	113	114	87.8	61.7
CO[C@@H]1[C@@H](OC(N)=O)[C@@H](O)[C@H](OC2=CC=C3\C(=C(NC(=O)C4=CC=C([O-])C(=C4)CC=C(C)C)/C(=O)OC3=C2C)O)OC1(C)C	110	111	122	114	109	120	101	91.9	93.2	87	31.8	91.4	101	96.6	98.1	111	102	116	110	101	86.6	26.2	114	118	116	118	113	97.5	117	120	88.5	83.9	35.9
COc1nccc(-c2c(-c3ccc(F)cc3)ncn2C2CCC(O)CC2)n1 (configuration not stated)	120	123	121	123	132	121	111	122	112	119	51.3	107	109	120	115	111	112	103	100	98.4	100	35.9	122	114	126	109	116	118	105	118	111	107	74.3
CN[C@H]1[C@H](O[C@@H]2[C@H](O[C@@H]3[C@@H](O)[C@@H](O)[C@@H](NC(=N)N)[C@@H](O)[C@H]3NC(=N)N)O[C@H](C)[C@@]2(O)C=O)O[C@@H](CO)[C@@H](O)[C@H]1O	117	115	118	111	130	120	101	96.1	89	66.9	23.7	109	113	112	109	112	104	103	111	96.6	101	26.1	106	107	103	113	114	105	102	109	105	87.1	26.2
Cc1ccc(NC(=O)Nc2cc(C(F)(F)F)ccc2F)cc1Nc1ccc2c(c1)NC(=O)/C2=C\c1ccc[nH]1												108	126	118	124	133	139	149	161	136	132	40.4	116	124	140	140	149	150	149	160	154	115	28.1
CC(=O)OCC(=O)[C@@]12OC(C)(C)O[C@@H]1C[C@H]3[C@@H]4C[C@H](F)C/5=C/C(=O)/C=C\[C@]5(C)[C@@]4(F)[C@@H](O)C[C@]23C	120	117	115	126	114	115	105	115	112	120	122	103	107	103	119	114	109	111	113	116	123	128	109	108	104	113	111	132	116	132	131	121	144
O=C(C1CC1)N1CC[C@@H](Cn2c(-c3ccc(-c4ccc5occc5c4)cc3)nc3cnccc32)C1	93.7	128	117	112	122	135	121	134	117	123	82.6	117	101	104	102	111	104	106	115	119	109	113	101	115	107	129	120	112	119	114	109	110	100
